The CheMixHub viscosity set
Where “and” joins values, the source holds several entries; their conditions need not be identical. Identical values can stand only once.

Experiment: xn = mol fraction of the nth substance listed

OCCCCO + O
viscosity
Settings	298.15 K	303.15 K	308.15 K	313.15 K	318.15 K	323.15 K
101 kPa, x1 = 0.0099	–	0.933 mPa·s	0.836 mPa·s	0.755 mPa·s	0.687 mPa·s	0.63 mPa·s
101 kPa, x1 = 0.0201	–	1.09 mPa·s	0.971 mPa·s	0.871 mPa·s	0.788 mPa·s	0.718 mPa·s
101 kPa, x1 = 0.0299	–	1.256 mPa·s	–	0.989 mPa·s	0.89 mPa·s	0.806 mPa·s
101 kPa, x1 = 0.0399	–	1.429 mPa·s	1.256 mPa·s	1.113 mPa·s	0.998 mPa·s	0.899 mPa·s
101 kPa, x1 = 0.05	1.94 mPa·s	1.625 mPa·s	1.48 mPa·s and 1.424 mPa·s	1.258 mPa·s	1.14 mPa·s and 1.12 mPa·s	1.004 mPa·s
101 kPa, x1 = 0.0599	–	1.838 mPa·s	1.595 mPa·s	1.4 mPa·s	1.243 mPa·s	1.11 mPa·s
101 kPa, x1 = 0.0699	–	2.057 mPa·s	1.781 mPa·s	1.559 mPa·s	1.376 mPa·s	–
101 kPa, x1 = 0.075	2.65 mPa·s	–	1.93 mPa·s	–	1.44 mPa·s	–
101 kPa, x1 = 0.08	–	2.298 mPa·s	1.982 mPa·s	1.724 mPa·s	1.518 mPa·s	1.347 mPa·s
101 kPa, x1 = 0.0901	–	2.553 mPa·s	2.192 mPa·s	1.901 mPa·s	1.666 mPa·s	1.472 mPa·s
101 kPa, x1 = 0.1	3.397 mPa·s	2.818 mPa·s and 2.803 mPa·s	2.44 mPa·s and 2.404 mPa·s and 2.514 mPa·s	2.079 mPa·s	1.84 mPa·s and 1.817 mPa·s	1.602 mPa·s
101 kPa, x1 = 0.15	5.39 mPa·s	–	3.78 mPa·s	–	2.68 mPa·s	–
101 kPa, x1 = 0.2	7.88 mPa·s	–	5.24 mPa·s	–	3.72 mPa·s	–
101 kPa, x1 = 0.2001	9.496 mPa·s	7.867 mPa·s	–	–	–	–
101 kPa, x1 = 0.3007	13.82 mPa·s	11.16 mPa·s	9.319 mPa·s	–	–	–
101 kPa, x1 = 0.4	21.4 mPa·s	–	–	–	9.25 mPa·s	–
101 kPa, x1 = 0.4006	21 mPa·s	16.91 mPa·s	13.99 mPa·s	–	–	–
101 kPa, x1 = 0.4977	29.42 mPa·s	23.41 mPa·s	19.16 mPa·s	–	–	–
101 kPa, x1 = 0.6	41.4 mPa·s	–	25 mPa·s	–	16.2 mPa·s	–
101 kPa, x1 = 0.6002	38.85 mPa·s	30.89 mPa·s	25.12 mPa·s	–	–	–
101 kPa, x1 = 0.6982	47.66 mPa·s	38.2 mPa·s	30.3 mPa·s	–	–	–
101 kPa, x1 = 0.7993	56.65 mPa·s	44.81 mPa·s	36.18 mPa·s	–	–	–
101 kPa, x1 = 0.8	60.5 mPa·s	–	36.9 mPa·s	–	23.8 mPa·s	–
101 kPa, x1 = 0.8969	63.9 mPa·s	48.65 mPa·s	–	–	–	–
101 kPa, x1 = 0.9	68.4 mPa·s	–	40.3 mPa·s	–	27.1 mPa·s	–
101.3 kPa, x1 = 0.7917	–	–	–	29.65 mPa·s	–	–
101.3 kPa, x2 = 0.4531	33.95 mPa·s	–	–	–	–	–
101.3 kPa, x2 = 0.6513	18.65 mPa·s	–	–	–	–	–

OCCCCO + CS(C)=O
viscosity [mPa·s], 101 kPa
Settings	293.15 K	298.15 K	303.15 K	308.15 K	313.15 K	318.15 K
x1 = 0.0436	2.61	2.25	2.06	1.81	1.67	1.55
x1 = 0.0879	3	2.59	2.35	2.06	1.89	1.74
x1 = 0.1327	3.46	2.97	2.68	2.34	2.13	1.96
x1 = 0.1781	4.01	3.4	3.06	2.66	2.41	2.21
x1 = 0.2242	4.66	3.92	3.51	3.05	2.73	2.53
x1 = 0.2709	5.43	4.53	4.05	3.49	3.13	–
x1 = 0.3183	6.36	5.27	4.7	4	3.55	–
x1 = 0.3663	7.51	6.19	5.47	4.63	4.08	–
x1 = 0.415	8.85	7.3	6.4	5.38	4.7	–
x1 = 0.4644	10.5	8.6	7.5	6.3	5.47	–
x1 = 0.5145	12.7	10.3	8.9	7.4	6.4	–
x1 = 0.5653	15.4	12.4	10.6	8.8	7.5	–
x1 = 0.6169	18.9	15	12.8	10.5	8.9	–
x1 = 0.6692	23.4	18.5	15.6	12.7	10.7	–
x1 = 0.7223	29.2	22.9	19.1	15.4	12.9	–
x1 = 0.7762	36.7	28.4	23.5	18.9	15.6	–
x1 = 0.8309	46.5	35.7	29.3	23.2	19	–
x1 = 0.8864	59.2	44.8	36.4	28.6	23.3	–
x1 = 0.9428	75.2	56.4	45.4	35.5	28.7	–

O=C1CCCN1 + O
Settings	viscosity [mPa·s]
298.15 K, 100 kPa, x1 = 0.0115	1.015
298.15 K, 100 kPa, x1 = 0.0189	1.099
298.15 K, 100 kPa, x1 = 0.0287	1.211
298.15 K, 100 kPa, x1 = 0.0388	1.328
298.15 K, 100 kPa, x1 = 0.0505	1.472
298.15 K, 100 kPa, x1 = 0.0598	1.591
298.15 K, 100 kPa, x1 = 0.0698	1.725
298.15 K, 100 kPa, x1 = 0.0803	1.875
298.15 K, 100 kPa, x1 = 0.0898	2.013
298.15 K, 100 kPa, x1 = 0.1007	2.241
298.15 K, 100 kPa, x1 = 0.1507	3.167
298.15 K, 100 kPa, x1 = 0.2024	4.25
298.15 K, 100 kPa, x1 = 0.2554	5.425
298.15 K, 100 kPa, x1 = 0.3052	6.531
298.15 K, 100 kPa, x1 = 0.3568	7.599
298.15 K, 100 kPa, x1 = 0.4091	8.579
298.15 K, 100 kPa, x1 = 0.4579	9.388
298.15 K, 100 kPa, x1 = 0.5569	10.69
298.15 K, 100 kPa, x1 = 0.6612	11.65
298.15 K, 100 kPa, x1 = 0.7216	12.08
298.15 K, 100 kPa, x1 = 0.8231	12.63
298.15 K, 100 kPa, x1 = 0.8637	12.82
298.15 K, 100 kPa, x1 = 0.9213	13.08
298.15 K, 100 kPa, x1 = 0.9301	13.11
298.15 K, 100 kPa, x1 = 0.9395	13.16
298.15 K, 100 kPa, x1 = 0.9491	13.18
298.15 K, 100 kPa, x1 = 0.9588	13.21
298.15 K, 100 kPa, x1 = 0.969	13.22
298.15 K, 100 kPa, x2 = 0.0105	13.3
304.15 K, 101.33 kPa, x2 = 0.1162	10.05
304.15 K, 101.33 kPa, x2 = 0.1885	9.771
304.15 K, 101.33 kPa, x2 = 0.2962	9.28
304.15 K, 101.33 kPa, x2 = 0.407	8.553
304.15 K, 101.33 kPa, x2 = 0.5061	7.697
304.15 K, 101.33 kPa, x2 = 0.5975	6.611
304.15 K, 101.33 kPa, x2 = 0.6831	5.353
304.15 K, 101.33 kPa, x2 = 0.8066	3.322
304.15 K, 101.33 kPa, x2 = 0.9019	1.885
308.15 K, 101 kPa, x1 = 0.0921	1.572
308.15 K, 101 kPa, x1 = 0.1915	2.467
308.15 K, 101 kPa, x1 = 0.315	3.573
308.15 K, 101 kPa, x1 = 0.4027	4.339
308.15 K, 101 kPa, x1 = 0.519	5.43
308.15 K, 101 kPa, x1 = 0.5927	6.176
308.15 K, 101 kPa, x1 = 0.6947	6.828
308.15 K, 101 kPa, x1 = 0.7877	7.493
308.15 K, 101 kPa, x1 = 0.9207	8.425
308.15 K, 101.33 kPa, x2 = 0.1162	8.702
308.15 K, 101.33 kPa, x2 = 0.1885	8.419
308.15 K, 101.33 kPa, x2 = 0.2962	7.958
308.15 K, 101.33 kPa, x2 = 0.407	7.333
308.15 K, 101.33 kPa, x2 = 0.5061	6.591
308.15 K, 101.33 kPa, x2 = 0.5975	5.665
308.15 K, 101.33 kPa, x2 = 0.6831	4.612
308.15 K, 101.33 kPa, x2 = 0.8066	2.917
308.15 K, 101.33 kPa, x2 = 0.9019	1.69
313.15 K, 101 kPa, x1 = 0.0803	1.274
313.15 K, 101 kPa, x1 = 0.1598	2.074
313.15 K, 101 kPa, x1 = 0.2476	3.053
313.15 K, 101 kPa, x1 = 0.3087	3.73
313.15 K, 101 kPa, x1 = 0.4	4.641
313.15 K, 101 kPa, x1 = 0.4668	5.207
313.15 K, 101 kPa, x1 = 0.5478	5.763
313.15 K, 101 kPa, x1 = 0.6434	6.298
313.15 K, 101 kPa, x1 = 0.7195	6.627
313.15 K, 101 kPa, x1 = 0.7991	6.924
313.15 K, 101 kPa, x1 = 0.8781	7.184
313.15 K, 101 kPa, x1 = 0.9585	7.432
313.15 K, 101.33 kPa, x2 = 0.1162	7.3
313.15 K, 101.33 kPa, x2 = 0.1885	7.066
313.15 K, 101.33 kPa, x2 = 0.2962	6.647
313.15 K, 101.33 kPa, x2 = 0.407	6.111
313.15 K, 101.33 kPa, x2 = 0.5061	5.506
313.15 K, 101.33 kPa, x2 = 0.5975	4.74
313.15 K, 101.33 kPa, x2 = 0.6831	3.873
313.15 K, 101.33 kPa, x2 = 0.8066	2.495
313.15 K, 101.33 kPa, x2 = 0.9019	1.483
318.15 K, 101.33 kPa, x2 = 0.1162	6.211
318.15 K, 101.33 kPa, x2 = 0.1885	5.985
318.15 K, 101.33 kPa, x2 = 0.2962	5.641
318.15 K, 101.33 kPa, x2 = 0.407	5.164
318.15 K, 101.33 kPa, x2 = 0.5061	4.656
318.15 K, 101.33 kPa, x2 = 0.5975	4.004
318.15 K, 101.33 kPa, x2 = 0.6831	3.308
318.15 K, 101.33 kPa, x2 = 0.8066	2.165
318.15 K, 101.33 kPa, x2 = 0.9019	1.313
323.15 K, 101.33 kPa, x2 = 0.1162	5.336
323.15 K, 101.33 kPa, x2 = 0.1885	5.14
323.15 K, 101.33 kPa, x2 = 0.2962	4.823
323.15 K, 101.33 kPa, x2 = 0.407	4.414
323.15 K, 101.33 kPa, x2 = 0.5061	3.987
323.15 K, 101.33 kPa, x2 = 0.5975	3.433
323.15 K, 101.33 kPa, x2 = 0.6831	2.845
323.15 K, 101.33 kPa, x2 = 0.8066	1.901
323.15 K, 101.33 kPa, x2 = 0.9019	1.173
